Data published in patent US20200277246A1, “TREATMENT METHOD, COMPOUNDS, AND METHOD OF INCREASING TRPV2 ACTIVITY” (THE FEINSTEIN INSTITUTE FOR MEDICAL RESEARCH, priority 2015, published 2020).
“And” between values parts separate entries of the source, which are not always exact repeats. Identical values can stand only once. “Also recorded” adds a separate entry of the source.

Legend:
[1] = test system: FLS from a C57BL/6 mouse with KRN serum-induced arthritis; assay: Matrigel transwell invasion assay, mouse FLS; type: cell-based; settings: 10 μM, one cell line in triplicate
Protocol: The in vitro invasiveness of FLS was assayed in a transwell system using Matrigel-coated inserts (BD Biosciences, Franklin Lakes, N.J.), as previously described (Tolboom et al., “Invasiveness of Fibroblast-Like Synoviocytes is an Individual Patient Characteristic Associated with the Rate of Joint Destruction in Patients with Rheumatoid Arthritis,” Arthritis Rheum. 52 (7):1999-2002 (2005); Laragione et al., “The Arthritis Severity Locus Cia5d is a Novel Genetic Regulator of the Invasive Properties of Synovial Fibroblasts,” Arthritis Rheum. 58 (8):2296-2306 (2008), which are hereby incorporated by reference in their entirety). Briefly, 70-80% confluent cells were harvested by trypsin-EDTA digestion, and re-suspended at 2.0×10^4 cells in 500 μl of serum-free DMEM. Cells were placed in the upper compartment of the Matrigel-coated inserts. Where indicated, O1821, LER13, or vehicle was added to the upper chamber. The lower compartment was filled with complete media and the plates were incubated at 37° C. for 24 hours. After 24 hours the upper surface of the insert was wiped with cotton-swabs to remove non-invading cells and the Matrigel layer. The opposite side of the insert was stained with Crystal Violet (Sigma) and the total number of cells that invaded through Matrigel counted at 100× magnification. […]

Trpv2 = target: T1, Trpv2 (Rattus norvegicus, UniProt Q9WUD2); assay: Intracellular calcium influx (Fluo-4 NW) in DA FLS; type: cell-based; set-up: endogenous in cells; host or cells: fibroblast-like synoviocytes (FLS) from DA rats; settings: for Intracellular calcium influx vs untreated and vehicle: increasing concentrations, two DA FLS cell lines
T1 sequence (Q9WUD2 1-761): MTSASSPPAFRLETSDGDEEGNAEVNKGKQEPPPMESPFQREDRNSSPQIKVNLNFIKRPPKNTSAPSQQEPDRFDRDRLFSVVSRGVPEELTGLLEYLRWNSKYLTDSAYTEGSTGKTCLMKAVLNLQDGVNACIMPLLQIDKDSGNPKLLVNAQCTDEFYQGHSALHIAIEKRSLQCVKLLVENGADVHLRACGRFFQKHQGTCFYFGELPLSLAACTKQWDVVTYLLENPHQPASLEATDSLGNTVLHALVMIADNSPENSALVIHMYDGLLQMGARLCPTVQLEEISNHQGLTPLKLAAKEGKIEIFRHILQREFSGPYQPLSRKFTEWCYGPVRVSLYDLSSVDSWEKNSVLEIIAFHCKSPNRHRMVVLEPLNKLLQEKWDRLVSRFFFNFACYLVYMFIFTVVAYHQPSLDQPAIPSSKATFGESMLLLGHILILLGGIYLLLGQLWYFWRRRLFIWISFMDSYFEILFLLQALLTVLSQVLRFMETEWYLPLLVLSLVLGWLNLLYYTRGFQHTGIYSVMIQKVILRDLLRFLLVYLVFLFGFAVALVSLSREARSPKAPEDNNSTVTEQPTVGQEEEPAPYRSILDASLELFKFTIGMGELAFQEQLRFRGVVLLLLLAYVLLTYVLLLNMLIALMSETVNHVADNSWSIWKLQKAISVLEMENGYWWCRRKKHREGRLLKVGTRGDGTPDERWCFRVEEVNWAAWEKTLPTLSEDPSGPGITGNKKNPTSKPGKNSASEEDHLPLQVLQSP
Protocol: Intracellular calcium influx was measured using the Fluo-4 NW calcium assay kit (Molecular Probes/Invitrogen) according to the manufacturer's instructions, as previously described (Laragione et al., “CXCL10 and its Receptor CXCR3 Regulate Synovial Fibroblast Invasion in Rheumatoid Arthritis,” Arthritis Rheum. 63 (11):3274-3283 (2011), which is hereby incorporated by reference in its entirety). Briefly, DA FLS were plated at a density of 4,500 cells/well in a 96-well plate (100 μl volume of complete media per well). After cell adhesion the media was changed to serum-free media for overnight culture. Serum-free media was then replaced with 50 μl of dye loading solution, followed by incubation at 37° C. for 30 minutes and a baseline fluorimetric reading. Then, O1821, LER13, or vehicle were added to their respective wells at different concentrations and fluorescence read immediately in a Fluoroskan Ascent Microplate Fluorometer (Thermo Scientific) with settings appropriate for excitation at 494 nm and emission at 516 nm.

[2] = test system: FLS from DA rats with PIA; assay: Matrigel transwell invasion assay, FLS from DA rats with PIA (incl. siRNA knock-down); type: cell-based, rat; settings: for Reduction of FLS invasion: DA cells, overnight
Protocol: The in vitro invasiveness of FLS was assayed in a transwell system using Matrigel-coated inserts (BD Biosciences, Franklin Lakes, N.J.), as previously described (Tolboom et al., “Invasiveness of Fibroblast-Like Synoviocytes is an Individual Patient Characteristic Associated with the Rate of Joint Destruction in Patients with Rheumatoid Arthritis,” Arthritis Rheum. 52 (7):1999-2002 (2005); Laragione et al., “The Arthritis Severity Locus Cia5d is a Novel Genetic Regulator of the Invasive Properties of Synovial Fibroblasts,” Arthritis Rheum. 58 (8):2296-2306 (2008), which are hereby incorporated by reference in their entirety). Briefly, 70-80% confluent cells were harvested by trypsin-EDTA digestion, and re-suspended at 2.0×10^4 cells in 500 μl of serum-free DMEM. Cells were placed in the upper compartment of the Matrigel-coated inserts. Where indicated, O1821, LER13, or vehicle was added to the upper chamber. The lower compartment was filled with complete media and the plates were incubated at 37° C. for 24 hours. After 24 hours the upper surface of the insert was wiped with cotton-swabs to remove non-invading cells and the Matrigel layer. The opposite side of the insert was stained with Crystal Violet (Sigma) and the total number of cells that invaded through Matrigel counted at 100× magnification. Experiments were done in duplicate.
Dharmacon SMARTpool siRNA targeting Trpv2, Gapdh, or a non-coding control were purchased from Thermo Scientific (Lafayette, Colo.) and transfected into DA FLS according to the manufacturer's instructions. Cells were then incubated at 37° C. for 72 hours prior to initiating the invasion assays. Knock-down was confirmed with qPCR and Western blot.

SMILES | Reduction in invasion vs control vehicle ([1]; listed as LER13) | Calcium influx higher compared with O1821 (Trpv2; DA FLS) [%] | Intracellular calcium influx vs untreated and vehicle (Trpv2) | Calcium influx (Trpv2; measured over 200 seconds, compared with O1821) | Suppression of FLS invasion ([2]; 10 μM, non-transfected, siRNA control and siRNA GAPDH DA FLS, listed as LER13) | Suppression of FLS invasion after Trpv2 siRNA knock-down ([2]; siRNA Trpv2 transfected FLS, listed as LER13) | Reduction in invasion vs control vehicle [1] [%] | Reduction of FLS invasion ([2]; 1 μM) [%] | Reduction of FLS invasion ([2]; 10 μM) [%]
C#Cc1cc(O)c(C2C=C(C)CCC2C(=C)C)c(O)c1C1C=C(C)CCC1C(=C)C [Compound 13, (1R,2″R,2R,2″S)-6′-ethynyl-5,5″-dimethyl-2,2″-di(prop-1-en-2-yl)-1,1″,2,2″,3,3″,4,4″-octahydro-[1,1′:3′,1″-terphenyl]-2′,4′-diol] | 65% and 75% | ~30 | significantly increased intracellular calcium influx | increased (30% greater than O1821) | 65% and 60% | non-responsive; also recorded: not responsive or suppressed |  |  | 
C=C(C)[C@@H]1CCC(C)=C[C@H]1c1c(O)cc(C)cc1O [Compound O1821] |  |  | significant dose-dependent increase; also recorded: significantly increased intracellular calcium influx |  |  |  | 65 | 80 | 99.4
